These compounds were tested against T1, human NaV 1.8 (Homo sapiens, UniProt Q9Y5Y9) (assay: Automated whole-cell patch clamp (Qube384) voltage-clamp recordings of sodium currents in HEK-NaV1.8 cell line). Details: read-out: Potency category (human NaV 1.8 IC50).
T1 construct: expressed in transfected cells; host or cells: HEK (recombinant cell line)
Assay type: cell-based
Procedure, shortened: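 HEK cells expressing NaV1.8 with b3, whole-cell automated voltage clamp at room temperature or 19° C.; CsF-based internal, pH 7.4 external. State-dependent (−120 mV, V1/2 4 s, −10 mV test pulses) and 10/20 Hz 40-pulse protocols; ~12 min compound, vehicle-corrected, IC50 by 4-parameter logistic fit.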

T1 sequence (Q9Y5Y9 whole entry): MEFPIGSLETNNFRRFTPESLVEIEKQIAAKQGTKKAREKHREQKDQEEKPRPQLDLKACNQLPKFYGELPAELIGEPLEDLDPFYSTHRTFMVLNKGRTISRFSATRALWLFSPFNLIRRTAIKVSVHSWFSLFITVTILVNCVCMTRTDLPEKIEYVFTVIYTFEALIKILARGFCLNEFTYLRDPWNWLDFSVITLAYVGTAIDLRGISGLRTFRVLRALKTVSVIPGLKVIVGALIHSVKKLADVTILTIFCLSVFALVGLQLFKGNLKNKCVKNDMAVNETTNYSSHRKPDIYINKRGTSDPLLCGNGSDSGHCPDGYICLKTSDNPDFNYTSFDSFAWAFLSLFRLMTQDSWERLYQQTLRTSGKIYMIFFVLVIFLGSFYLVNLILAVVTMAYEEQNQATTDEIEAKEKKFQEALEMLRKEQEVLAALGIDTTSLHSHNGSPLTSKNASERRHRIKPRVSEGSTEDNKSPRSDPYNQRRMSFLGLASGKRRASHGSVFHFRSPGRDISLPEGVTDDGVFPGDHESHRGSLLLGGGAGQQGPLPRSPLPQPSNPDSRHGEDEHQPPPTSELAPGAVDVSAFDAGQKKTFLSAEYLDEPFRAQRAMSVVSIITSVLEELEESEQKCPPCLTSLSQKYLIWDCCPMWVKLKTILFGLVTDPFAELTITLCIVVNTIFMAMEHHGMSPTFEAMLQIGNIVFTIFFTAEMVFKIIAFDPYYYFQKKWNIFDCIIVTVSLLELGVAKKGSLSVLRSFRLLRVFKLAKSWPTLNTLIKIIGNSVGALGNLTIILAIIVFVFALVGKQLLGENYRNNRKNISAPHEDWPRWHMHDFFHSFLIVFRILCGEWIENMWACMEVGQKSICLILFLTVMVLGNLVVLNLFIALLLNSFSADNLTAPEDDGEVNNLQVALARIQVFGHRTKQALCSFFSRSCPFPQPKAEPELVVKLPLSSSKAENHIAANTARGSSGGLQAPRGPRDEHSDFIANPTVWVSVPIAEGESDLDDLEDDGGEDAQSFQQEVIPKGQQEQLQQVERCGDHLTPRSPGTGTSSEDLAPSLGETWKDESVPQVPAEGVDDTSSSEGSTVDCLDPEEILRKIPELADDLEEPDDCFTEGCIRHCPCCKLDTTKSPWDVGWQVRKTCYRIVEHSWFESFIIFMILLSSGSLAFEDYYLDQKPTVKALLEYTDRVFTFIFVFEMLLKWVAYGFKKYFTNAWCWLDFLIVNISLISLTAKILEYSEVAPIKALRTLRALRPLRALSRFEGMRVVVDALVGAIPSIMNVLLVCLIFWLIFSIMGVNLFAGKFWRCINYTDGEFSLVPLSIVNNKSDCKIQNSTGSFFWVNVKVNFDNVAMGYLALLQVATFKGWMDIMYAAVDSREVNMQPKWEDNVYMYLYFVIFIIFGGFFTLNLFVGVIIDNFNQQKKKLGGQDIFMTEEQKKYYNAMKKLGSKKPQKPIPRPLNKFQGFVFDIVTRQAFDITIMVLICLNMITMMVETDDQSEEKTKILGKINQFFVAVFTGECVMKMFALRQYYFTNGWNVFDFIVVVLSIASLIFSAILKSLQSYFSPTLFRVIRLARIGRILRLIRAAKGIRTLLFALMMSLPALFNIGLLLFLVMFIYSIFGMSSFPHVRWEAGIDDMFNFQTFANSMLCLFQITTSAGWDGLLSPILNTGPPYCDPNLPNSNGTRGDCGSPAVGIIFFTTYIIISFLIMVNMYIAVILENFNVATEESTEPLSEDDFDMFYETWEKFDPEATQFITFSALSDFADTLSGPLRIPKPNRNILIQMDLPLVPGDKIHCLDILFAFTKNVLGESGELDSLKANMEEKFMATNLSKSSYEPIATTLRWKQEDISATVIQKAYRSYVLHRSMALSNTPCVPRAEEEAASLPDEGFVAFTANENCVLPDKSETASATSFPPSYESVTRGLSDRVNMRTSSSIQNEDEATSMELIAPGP

IC50, ≤ 100 nM:
Cc1cc(NC(=O)c2c(C(F)(F)F)c(C3CC3)nn2CC2(C)CC(F)(F)C2)cc(S(C)(=N)=O)n1 (single isomer, unassigned) [Example 50a, 3-cyclopropyl-1-((3,3-difluoro-1-methylcyclobutyl)methyl)-N-(2-methyl-6-(S-methylsulfonimidoyl)pyridin-4-yl)-4-(trifluoromethyl)-1H-pyrazole-5-carboxamide]
CC1(Cn2nc(C3CC34CC4)c(C(F)(F)F)c2C(=O)Nc2ccnc(S(C)(=N)=O)c2)CC(F)(F)C1 (single isomer, unassigned) [Example 64b, 1-((3,3-difluoro-1-methylcyclobutyl)methyl)-N-(2-(S-methylsulfonimidoyl)pyridin-4-yl)-3-(spiro[2.2]pentan-1-yl)-4-(trifluoromethyl)-1H-pyrazole-5-carboxamide]
CN=S(C)(=O)c1cc(NC(=O)c2c(C)c(C(C)(F)F)nn2CC2(C)CC(F)(F)C2)ccn1 (single isomer, unassigned) [Example 34b, 1-((3,3-Difluoro-1-methylcyclobutyl)methyl)-3-(1,1-difluoroethyl)-N-(2-(N,S-dimethylsulfonimidoyl)pyridin-4-yl)-4-methyl-1H-pyrazole-5-carboxamide]
Cc1c(C(C)(F)F)nn(C[C@H]2C[C@@H](C(F)(F)F)C2)c1C(=O)Nc1ccnc(S(C)(=N)=O)c1 (single isomer, unassigned) [Example 31a, 3-(1,1-difluoroethyl)-4-methyl-N-(2-(S-methylsulfonimidoyl)pyridin-4-yl)-1-(((cis)-3-(trifluoromethyl)cyclobutyl)methyl)-1H-pyrazole-5-carboxamide]
C[S@@](=N)(=O)c1cc(NC(=O)c2c(C(F)(F)F)c(C3CC3)nn2C[C@@H]2CC23CC3)ccn1 (single isomer, unassigned) [Example 78a, 3-cyclopropyl-N-(2-(S-methylsulfonimidoyl)pyridin-4-yl)-1-(spiro[2.2]pentan-1-ylmethyl)-4-(trifluoromethyl)-1H-pyrazole-5-carboxamide]
CC1(Cn2nc(C3(F)CC3)c(C(F)(F)F)c2C(=O)Nc2cccc([S@@](C)(=O)=NC(=O)CO)c2)CC(F)(F)C1 [Example 151a]
C[S@@](=N)(=O)c1cccc(NC(=O)c2c(C(F)(F)F)c(C3(F)CC3)nn2CC2C[C@H]2C(F)(F)F)c1 (single isomer, unassigned) [Example 134c, 3-(1-Fluorocyclopropyl)-N-(3-(S-methylsulfonimidoyl)phenyl)-4-(trifluoromethyl)-1-(((trans)-2-(trifluoromethyl)cyclopropyl)methyl)-1H-pyrazole-5-carboxamide]
CC1(Cn2nc(C3CC3)c(C(F)(F)F)c2C(=O)Nc2cnnc(S(C)(=N)=O)c2)CC(F)(F)C1 (single isomer, unassigned) [Example 47a, 3-cyclopropyl-1-((3,3-difluoro-1-methylcyclobutyl)methyl)-N-(6-(S-methylsulfonimidoyl)pyridazin-4-yl)-4-(trifluoromethyl)-1H-pyrazole-5-carboxamide]
